Measurements from article PMC7700664, “In Vitro and Ex Vivo Evaluation of Penetratin as a Non-invasive Permeation Enhancer in the Penetration of Salmon Calcitonin through TR146 Buccal Cells and Porcine Buccal Tissues” (Pharmaceuticals, 2020).

What was measured:
TR146 cells = assay: FITC-Penetratin and Alexa 647-sCT internalization in TR146 cells (flow cytometry); assay type: cell-based, human; conditions: 2 h, FACS
Protocol: For the internalization of FITC-Penetratin and Alexa 647-sCT, Alexa 647-sCT was synthesized. Alexa-647 and sCT were left at room temperature for 2 h to react, and the reaction was terminated using ammonium chloride. Purification of Alexa 647-sCT was done through dialysis.
TR146 cells were seeded in a 6-well culture plate and confocal dish at a density of 5.0 × 10^5 cells per well, and incubated for 24 h at 37 °C in 5 % CO2. To determine the concentration at which optimal intracellular uptake of Penetratin occurs, FITC-Penetratin at 2.5, 5, 10, 15, 20, 30, and 40 μM were added and incubated for 2 h.
To confirm the effect of Penetratin on intracellular uptake of sCT, 1.22, 6.10 and 12.2 μM of FITC-Penetratin were added to 40 μg of Alexa 647-sCT and incubated for 2 h at 37 °C. For the energy-independent internalization of Penetratin, 40 μg of Alexa 647-sCT and 12.2 μM of FITC-Penetratin were added and incubated for 2 h at 4 °C (energy-abolishing condition) and 37 °C (biological condition). After 2 h, imaging study with flow cytometry (BD FACSverse; Becton Dickinson, Heidelberg, Germany) and confocal laser scanning microscopy (LSM 800, Zeiss, Oberkochen, Germany) were performed.
TR146 cells were treated with a pre-determined amount of FITC-Penetratin and Alexa 647-sCT in a 6-well culture plate. […]

TR146 cell layer = assay: In vitro cell permeation study (Transwell); assay type: in vitro ADME, human; parameters: Kp (permeability coefficient): unit not given here; conditions: 40 μg sCT; for Kp (permeability coefficient) / ER (enhancement ratio): TR146 Transwell; for Kp (permeability coefficient) / Js (flux): apical to basolateral, HBSS-HEPES, 37 °C, mean ± SD n = 3; for Kp (permeability coefficient): ELISA, Kp = Js/Cd; for Js (flux): TR146 layer on 12-well Transwell, 28–30 days culture, sampling 0.5–8 h, sCT ELISA
Protocol: (§1) TR146 cell was seeded in a 12-well Transwell insert (Corning Inc., Corning, NY, USA) at a density of 5 × 10^4 cells per cm^2, and the medium was changed every 2 days for 28–30 days. The experiment was conducted from apical to basolateral and HBSS-HEPES buffer was used as media. Forty micrograms of sCT and 1.22, 6.10, and 12.2 μM of Penetratin were added to apical chamber and kept at 37 °C. 500 μL of sampling was obtained at 0.5, 1, 2, 4 and 8 h. Transepithelial electrical resistance (TEER) value was measured before and after the experiment. TEER was calculated with the following Equation (1), where Rinsert with cell, Rinsert without cell, and A were insert filter areas. The permeated amount of sCT was analyzed using an sCT ELISA kit (Phoenix Pharmaceuticals, Burlingame, CA, USA):TEER = (Rinsert with cell − Rinsert without cell) × A(1)
(§2) The flux (Js) was calculated using the following Equation (2), where t (h) was permeation time, A( cm^2 ) was permeation area, and Qr (ng) was the permeated amount of sCT, (2) Js=Qr/A·t(ng·cm^−2·h^−1) Kp was calculated with the following Equation (3), (3) Kp=Js/Cd([…]) where Js was the flux from the steady state (ng⋅cm^−2⋅h^−1) and Cd was the initial concentration in the donor chamber (ng⋅cm^−3). Finally, the enhancement ratio (ER) was obtained by dividing the Kp value of each formulation with that of the control.

TR146 cell layers = assay: TEER before and after permeability experiments; assay type: cell-based, human; conditions: for TEER Value After: after permeability experiment (8 h, 37 °C); for TEER Value After / TEER Value Before: TR146 cell layers on Transwell; for TEER Recovery: after vs before permeability experiment, TR146 cell layers; for TEER Value Before: before permeability experiment
Protocol: as §1

porcine buccal tissues = assay: Ex vivo buccal tissues permeation (Franz diffusion cell); assay type: in vitro ADME; conditions: 40 μg sCT; for Kp (permeability coefficient) / Js (flux): porcine buccal epithelium, 37 °C, mean ± SD n = 3; for Kp (permeability coefficient): Franz cell, pH 7.4 PBS, ELISA, Kp = Js/Cd; for Js (flux): Franz diffusion cell, area 2.0 cm^2, receptor 12.5 mL pH 7.4 PBS, 600 rpm, 8 h, sCT ELISA; for ER (enhancement ratio): porcine buccal tissue
Protocol: Buccal pre-treatment was performed according to the experimental method of Oh et al.. Briefly, porcine buccal tissues were immediately collected after pigs were sacrificed from a local slaughterhouse. Adipose and connective tissues were removed from buccal mucosa using surgical scissors. To obtain buccal epithelium, tissues were put in pH 7.4 PBS at 60 °C for 1 min. They were evaluated in the following in vitro permeation study.
Buccal permeability of sCT was evaluated using the Franz diffusion cell. The permeation area was 2.0 cm^2, and the volume of receptor media was 12.5 mL. The receptor was filled with pH 7.4 PBS and stirred at 600 rpm at 37 °C. The Franz diffusion cell was equilibrated for 30 min after mounting the buccal epithelium. Forty micrograms of sCT and of 1.22, 6.10 and 12.2 μM of Penetratin, of which molecular ratios were 1:0.1, 1:0.5 and 1:1 in donor part, respectively, were added to the Franz diffusion cell. Half of a milliliter of sample was obtained at different time intervals (1, 2, 4, and 8 h) from the receptor part and analyzed by a sCT ELISA kit (Phoenix Pharmaceuticals, Burlingame, CA, USA).
as §2

[1] = no reference given for the value; cited from earlier work
Protocol: Penetratin is one of the most promising CPPs. Penetratin has positively charged amino acids such as lysine and arginine, and hydrophobic amino acids. Various cargoes were delivered by overcoming the barrier of the cell membrane, but the mechanism of CPPs and Cargo delivery through the cell membrane is still unclear. There is a possible explanation. At pH 7.4, where permeation and cell uptake experiments were conducted, sCT with a pI of 10.4 and penetratin have a positive charge, so there is no ionic interaction between penetratin and sCT. Penetratin and sCT form a hydrophobic interactio ...

[2] = Penetratin 1.22 μM, Kp of formulation divided by Kp of control
[3] = Penetratin 6.10 μM, Kp of formulation divided by Kp of control

Substance: FITC-Penetratin: FITC labeled Penetratin, purchased from Peptron
- internalization of FITC-Penetratin at 4 °C (TR146 cells; 12.2 μM FITC-Penetratin + 40 μg Alexa 647-sCT, 4 °C): confirmed
- relative MFI of FITC-Penetratin (internalization) versus concentration (TR146 cells; FITC-Penetratin 2.5–40 μM, 37 °C, n = 3): increased steeply from 2.5 to 15 μM, but increased more gradually from 15 to 40 μM

Substance: Salmon calcitonin [sCT]
- Kp (permeability coefficient) (TR146 cell layer; Penetratin 0 μM (control)): 0.201 ± 0.007
- Js (flux) (TR146 cell layer; Penetratin 0 μM (control)): 16.091 ± 0.560 ng·cm^−2·h^−1
- Kp (permeability coefficient) (TR146 cell layer; Penetratin 1.22 μM): 0.275 ± 0.041
- ER (enhancement ratio) (TR146 cell layer; [2]): 1.4
- Js (flux) (TR146 cell layer; Penetratin 1.22 μM): 22.004 ± 3.247 ng·cm^−2·h^−1
- Kp (permeability coefficient) (TR146 cell layer; Penetratin 6.10 μM): 0.676 ± 0.063
- ER (enhancement ratio) (TR146 cell layer; [3]): 3.4
- Js (flux) (TR146 cell layer; Penetratin 6.10 μM): 54.075 ± 5.053 ng·cm^−2·h^−1
- Kp (permeability coefficient) (TR146 cell layer; Penetratin 12.2 μM): 1.115 ± 0.140
- ER (enhancement ratio) (TR146 cell layer; Penetratin 12.2 μM, Kp of formulation divided by Kp of control (text: fold increase of Js/flux)): 5.5
- Js (flux) (TR146 cell layer; Penetratin 12.2 μM): 89.190 ± 11.227 ng·cm^−2·h^−1
- TEER Value After (TR146 cell layers; 40 μg sCT + Penetratin 0 μM): 60.48 ± 5.88 Ω·cm^2
- TEER Value After (TR146 cell layers; 40 μg sCT + Penetratin 1.22 μM): 59.73 ± 2.94 Ω·cm^2
- TEER Value After (TR146 cell layers; 40 μg sCT + Penetratin 6.10 μM): 60.11 ± 6.00 Ω·cm^2
- TEER Value After (TR146 cell layers; 40 μg sCT + Penetratin 12.2 μM): 61.60 ± 6.62 Ω·cm^2
- TEER Recovery (TR146 cell layers; 40 μg sCT + Penetratin 0 μM): 96.31 ± 1.78%
- TEER Recovery (TR146 cell layers; 40 μg sCT + Penetratin 1.22 μM): 94.21 ± 1.90%
- TEER Recovery (TR146 cell layers; 40 μg sCT + Penetratin 6.10 μM): 98.17 ± 2.64%
- TEER Recovery (TR146 cell layers; 40 μg sCT + Penetratin 12.2 μM): 96.52 ± 4.97%
- TEER Value Before (TR146 cell layers; group 40 μg sCT + Penetratin 0 μM): 62.72 ± 5.20 Ω·cm^2
- TEER Value Before (TR146 cell layers; group 40 μg sCT + Penetratin 1.22 μM): 63.47 ± 3.99 Ω·cm^2
- TEER Value Before (TR146 cell layers; group 40 μg sCT + Penetratin 6.10 μM): 61.23 ± 6.00 Ω·cm^2
- TEER Value Before (TR146 cell layers; group 40 μg sCT + Penetratin 12.2 μM): 63.84 ± 6.42 Ω·cm^2
- Kp (permeability coefficient) (porcine buccal tissues; Penetratin 0 μM (control)): 0.005 ± 0.000 cm·h^−2 × 10^−3
- Js (flux) (porcine buccal tissues; Penetratin 0 μM (control)): 0.208 ± 0.018 ng·cm^−2·h^−1
- Js (flux) (porcine buccal tissues; Penetratin 1.22 μM (sCT:Penetratin 1:0.1)): 1.973 ± 0.660 ng·cm^−2·h^−1
- Kp (permeability coefficient) (porcine buccal tissues; Penetratin 1.22 μM): 0.049 ± 0.017 cm·h^−2 × 10^−3
- ER (enhancement ratio) (porcine buccal tissues; [2]): 9.5
- Js (flux) (porcine buccal tissues; Penetratin 6.10 μM (sCT:Penetratin 1:0.5)): 6.707 ± 0.832 ng·cm^−2·h^−1
- Kp (permeability coefficient) (porcine buccal tissues; Penetratin 6.10 μM): 0.168 ± 0.021 cm·h^−2 × 10^−3
- ER (enhancement ratio) (porcine buccal tissues; [3]): 32.2
- Js (flux) (porcine buccal tissues; Penetratin 12.2 μM (sCT:Penetratin 1:1)): 19.507 ± 1.794 ng·cm^−2·h^−1
- Kp (permeability coefficient) (porcine buccal tissues; Penetratin 12.2 μM): 0.488 ± 0.045 cm·h^−2 × 10^−3
- ER (enhancement ratio) (porcine buccal tissues; Penetratin 12.2 μM, Kp of formulation divided by Kp of control (text: fold increase of flux / permeated amount)): 93.7
- pI [1]: 10.4
